According to the METLIN SMRT retention time set (Domingo-Almenara et al. 2019):

Assay: gradient 5% acetonitrile 3 min, to 50% in 2 min, to 85% in 15 min, held 3 min, 100 µL/min
Settings: column: Zorbax Extend-C18 2.1 x 50 mm; eluents: water / acetonitrile, 0.1% formic acid
Method in brief: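 In both positive and negative ionization mode, a quadrupole time-of-flight mass spectrometer coupled to HPLC analyzed pure standards run in mixtures of ~100 molecules. The Zorbax Extend-C18 column (2.1 × 50 mm, 1.8 μm) was operated at 100 μL/min with water and acetonitrile, each containing 0.1% formic acid. The dead volume was 40 μL and the dwell volume 900 μL. Retention time came from adduct peaks that were computationally picked and individually inspected by hand.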

SMILES | RP-LC retention time
COCC(=O)NC1CCC12CCN(S(=O)(=O)c1cn(C)cn1)CC2 (configuration not stated) | 623 s
Cc1ccc(CNC(=O)CCc2nc3c(C)cccc3c(=O)n2C)cc1C | 892 s
Cc1cc2[nH]c(C(=O)Nc3ccc(F)cc3F)c(CN3CCOCC3)c2s1 | 710 s
Cc1cc(NC(=O)N2CCC(n3cnc4cccnc43)CC2)ccc1Br | 684 s
CCCn1cc(C(=O)NCc2ccc(F)cc2F)c(S(=O)(=O)N2CCC(C)CC2)n1 | 1100 s
CCc1nc(-c2cc(S(=O)(=O)N3CCC(C(=O)NCc4ccco4)CC3)c(C)s2)no1 | 932 s
CC(Cc1cc2c(c(C(N)=O)c1)N(CCCO)CC2)NCCOc1ccccc1OCC(F)(F)F (configuration not stated) | 654 s
COc1c(C(=O)NCc2ccccc2C)sc2cccc(F)c12 | 1130 s
CCCn1c(=O)c(N2CCC(NC(=O)NCc3cccc(F)c3)CC2)nc2ccccc21 | 959 s
Cc1nc(-n2cccc2)sc1C(=O)Nc1ccc(-c2cn3c(n2)SCC3)cc1 | 627 s
Cc1nnc(-c2nnc(NCc3ccccc3F)c3ccccc23)o1 | 819 s
N#Cc1ccc(-c2nc(-c3ccc4c(c3)nnn4CCC(=O)N3CCCC3)no2)c(F)c1 | 849 s
Cc1cccc(-n2c(N3CCCC(C(=O)NCc4ccccc4Cl)C3)nc3ccsc3c2=O)c1 (configuration not stated) | 956 s
CN1C(=O)c2cccnc2Sc2cc(NC(=O)C3(c4ccccc4)CC3)ccc21 | 875 s
CCC1CCCCN1C(=O)c1cnc2nc(C)ccc2c1Nc1cc(Cl)ccc1OC (configuration not stated) | 731 s
CCCCN(C)C(=O)Cn1c(=O)c2cnc(-c3ccccc3)nc2n(C)c1=O | 1000 s
Cc1cccc(-c2csc3c(=O)n(Cc4cc(=O)n5ccccc5n4)cnc23)c1 | 831 s
O=C(Cc1nnc2cc(-c3nc(C4CC4)no3)ccn12)NC1CC1 | 646 s
COc1ccc(-c2noc(C3CC(=O)N(c4cc(C)cc(C)c4)C3)n2)cc1OC (configuration not stated) | 922 s
O=C(CCCc1c[nH]c2ccccc12)NCCc1c[nH]c2ccccc12 | 830 s
CCC(=O)N1CCc2cc(N3CC(C(=O)Nc4ccc(OC)cc4)CC3=O)ccc21 (configuration not stated) | 714 s
O=S(=O)(Nc1ccc(N2CCOCC2)cc1)c1ccc(-c2nnc(C3CCC3)o2)o1 | 828 s

SMILES | RP-LC retention time
COc1ccc(CNS(=O)(=O)c2cc(-c3[nH]ncc3C(=O)N3CCCC3)oc2C)cc1 | 718 s
CC(C)(C)OC(=O)Cn1cnc2c(-c3cccc(Cl)c3)csc2c1=O | 1130 s
COc1cc(CN(CC2CCCO2)C(=O)c2ccc(F)cc2)cc(OC)c1OC (configuration not stated) | 834 s
CCc1cccc(NC(=O)CCc2c(C)nc3nc(-c4cc(OC)cc(OC)c4)nn3c2C)c1 | 970 s
CCCOc1cc(N2CCN(S(=O)(=O)CCC)CC2)nc(C)n1 | 606 s
CC(C)S(=O)(=O)c1cccc(-c2nnc(N)o2)c1 | 589 s
COc1ccc(/C=C2\N=C(c3ccccc3)OC2=O)c(OCc2ccccc2)c1 | 981 s
COCCN1CCCc2ccc(NC(=O)c3cccc(Br)c3)cc21 | 993 s
CCOC(=O)C1=C(CN2CCN(C(C)CC)CC2)NC(=O)NC1c1ccc(F)cc1 (configuration not stated) | 623 s
CC(=O)c1ccc(NC(=O)c2cn(C)nc2C)cc1 | 630 s
CCc1cccc(NS(=O)(=O)c2cc(-c3[nH]ncc3C(=O)N(C)C)oc2C)c1 | 718 s
COCCOC(=O)C1=C(C)NC(=O)NC1c1cn(-c2ccccc2)nc1-c1cccs1 (configuration not stated) | 742 s
Cc1c(C(=O)NCCN2CCOCC2)sc2ncn(CC(=O)N3CCCCC3C)c(=O)c12 (configuration not stated) | 598 s
Cn1nc(-c2nc(-c3ccccc3)no2)c2c1CCN(C(=O)NC1CCCCC1)C2 | 914 s
CCN(CC)C(=O)c1ccc2c(c1)nnn2CCNC(=O)Nc1ccc2c(c1)CCC2 | 764 s
Cc1cc(=O)n(CC(=O)Nc2ccc3c(c2)OCCO3)c(N2CCCC2)n1 | 620 s
COc1cc(NC(=O)N2CCC(N3CCN(Cc4ccc(C)cc4)C(=O)C3=O)CC2)cc(OC)c1 | 758 s
O=C(Nc1c(-c2ccccc2)nc2ccccn12)c1ccccc1F | 638 s
CN1C(=O)[C@H]2CN(Cc3cccc(Br)c3)C[C@H]2C1=O | 608 s
CCc1noc(NC(C)=O)c1-c1ccc(OC)c(S(=O)(=O)Nc2ccc(OC)cc2OC)c1 | 777 s
COc1cc(C(=O)Nc2nc3c(s2)Cc2c(Br)ccc(OC)c2-3)cc(OC)c1OC | 1170 s
CCc1ccc(C2=C(C)C(N3CCCN(C(=O)CCC(C)C)CC3)=NS2(=O)=O)cc1 | 974 s

SMILES | RP-LC retention time
Cc1ccc(OCc2ccc(-c3nc(C#N)c(NCCN(C)C)o3)o2)cc1 | 709 s
O=C([C@@H]1C[C@H](F)CN1C(=O)c1ccccc1)N1CCCCC1 | 668 s
COCCN1C(=O)CCc2cc(NS(=O)(=O)c3ccccc3Br)ccc21 | 763 s
Cc1ccc(C)c(NC(=O)C2CCCN2S(=O)(=O)c2cc3c(cc2C)NC(=O)C(C)O3)c1 (configuration not stated) | 845 s
O=C(NC1CCCCC1)[C@@H]1C[C@@H](O)CN1C1CCN(C(=O)c2ccc(Cn3ccnc3)o2)CC1 | 551 s
COc1cccc(Cn2c(=O)c3sccc3n(Cc3nc(-c4ccc(F)cc4)no3)c2=O)c1 | 1070 s
COc1ccccc1NC(=O)NC1CCCC(OC(=O)Nc2ccc(F)cc2)C1 (configuration not stated) | 883 s
CC(=O)N1c2ccc(S(=O)(=O)N3CCC(C(=O)Nc4cccnc4)CC3)cc2CC1C (configuration not stated) | 617 s
CCCCN1CCN(C(=O)C2CCCN(c3cnc4nccnc4c3)C2)CC1 (configuration not stated) | 569 s
CN(C)c1cc(C(=O)NC2CCCC2)c2ccccc2n1 | 619 s
Cc1ccc(-c2csc(-c3cccn3CC(=O)N(C)Cc3ccco3)n2)cc1 | 1170 s
CCOC(=O)C1CCN(c2cc3c(cc2NC(=O)NC(C)CC)n(C)c(=O)n3C)CC1 (configuration not stated) | 778 s
Cc1nc(-c2csc(S(=O)(=O)N3CCCC(C(=O)Nc4ccccc4Cl)C3)c2)no1 (configuration not stated) | 975 s
COc1ccc(-c2nnc3n2CCN(Cc2ccc(C)o2)C3)cc1 | 647 s
O=C(NCc1cc(F)cc(F)c1)c1cn(-c2ccc(NC(=O)C3CC3)cn2)cn1 | 763 s
CNc1nc(Nc2ccccc2)nc2ccccc12 | 633 s
O=C(CC(c1ccccc1)c1ccccc1)N1CC(c2nc(-c3ccccc3)no2)C1 | 1020 s
COc1ccccc1-c1nc2n(n1)C1(CCCCC1)[C@@H]1CCCC[C@@H]1N2C(=O)c1ccco1 | 1200 s
CSc1ccc(-c2nc3ccc(Br)cn3c2Nc2ccc(C)cc2)cc1 | 986 s
Cc1cccc(-c2noc(CN3N=NC4C(=O)N(c5ccc(F)cc5)C(=O)C43)n2)c1 (configuration not stated) | 1020 s
Cc1ccc(-n2nc(N3CCCC(C(=O)NCc4ccc(OC(C)C)cc4)C3)ccc2=O)cc1Cl (configuration not stated) | 999 s
O=C(C1CCCN(c2ncnc3c2nc2n3CCCCC2)C1)N1CCN(c2ccccn2)CC1 (configuration not stated) | 592 s

SMILES | RP-LC retention time
CCc1nc2cc(-c3noc(Cc4ccc(OC)cc4Cl)n3)ccc2o1 | 1190 s
CCCNC(=O)N(C1CCOCC1)C1CCN(C(=O)c2cccs2)CC1 | 657 s
Cn1c(C(=O)NC2CCCCCC2)cc2sc(Cl)cc21 | 1200 s
Cc1ccc2c(c1)N(S(C)(=O)=O)CCC(C(=O)Nc1ccccc1Cl)O2 (configuration not stated) | 1030 s
COc1ccc(OC)c(S(=O)(=O)N2CCc3nc(-c4ccc(F)cc4)ncc3C2)c1 | 1050 s
COc1ccc(N2CCN(C(=O)C3CC(=O)N(CCc4ccccc4)C3)CC2)cc1 (configuration not stated) | 729 s
COc1cccc(N2CCN(c3ccnc(SCC(=O)Nc4c(C)cc(C)cc4C)n3)CC2)c1 | 861 s
COc1ccc(-c2nc(C3CC(=O)N(c4ccc(F)cc4)C3)no2)cc1F (configuration not stated) | 969 s
Cc1ccc(C(=O)Nc2ccc(CN3CCN(C)CC3)c(C(F)(F)F)c2)cc1C#Cc1cnc2cccnn12 | 812 s
O=C(Cc1c[nH]c2ncccc12)NCc1ccc(Br)cc1 | 666 s
CCc1c(C)nc2nc(-c3ccccc3)nn2c1Nc1cc(OC)ccc1OC | 972 s
CC(Cc1ccco1)NC(=O)c1ccc2nc(CCc3ccccc3)oc2c1 (configuration not stated) | 714 s
O=S(=O)(Cc1cccc(Cl)c1)NCC(c1ccc(F)cc1)N1CCOCC1 (configuration not stated) | 609 s
COc1cccc(N2CCN(S(=O)(=O)c3ccsc3C(=O)NCC(C)C)CC2)c1 | 1000 s
COc1cc(NC(=O)C2=Cc3cc(Br)ccc3OC2)cc(OC)c1OC | 997 s
CCOC(=O)CNC(=O)NCc1cccn1Cc1ccccc1 | 793 s
CN(Cc1ccoc1)C(=O)NC1CCCC1 | 763 s
Cc1ccc(C)c(NC(=O)Cn2c(C(C)C)nc3c(c2=O)CCN(Cc2ccccc2)C3)c1 | 734 s
CCn1c(=O)c2c(cc(C)n2C)n(CC(=O)Nc2ccccc2C)c1=O | 776 s
O=C(NCc1cccs1)c1coc(NC(=O)c2ccco2)n1 | 632 s
Cc1cccc(C(=O)NCC2CCCN(S(=O)(=O)c3ccc4c(c3)CCCC4)C2)c1 (configuration not stated) | 1150 s
